Measurements reported in ChEMBL document CHEMBL4823305, “Design, synthesis and antibacterial evaluation of novel 3-O-substituted 15-membered azalides possessing 1,2,3-triazole side chains” (2021).
Values after ≈ are worked out from the molar mass of the structure shown. Active and inactive are the calls of the source. The rule behind the calls is not given here.

Legend:
[1] = system: Staphylococcus aureus; assay: Antibacterial activity against erythromycin-susceptible Staphylococcus aureus ATCC25923 by broth microdilution method; assay type: functional
[2] = system: Enterococcus faecalis; assay: Antibacterial activity against vancomycin-susceptible Enterococcus faecalis ATCC29212 by broth microdilution method; assay type: functional
[3] = system: Bacillus subtilis; assay: Antibacterial activity against penicillin-susceptible Bacillus subtilis ATCC9372 by broth microdilution method; assay type: functional
[4] = system: Enterococcus faecium; assay: Antibacterial activity against clinical isolate erythromycin-resistant Enterococcus faecium by broth microdilution method; assay type: functional
[5] = system: Staphylococcus aureus; assay: Antibacterial activity against methicillin-resistant Staphylococcus aureus ATCC43300 by broth microdilution method; assay type: functional
[6] = system: Staphylococcus aureus; assay: Antibacterial activity against penicillin-resistant Staphylococcus aureus by broth microdilution method; assay type: functional
[7] = system: Klebsiella pneumoniae; assay: Antibacterial activity against Klebsiella pneumoniae ATCC10031 by broth microdilution method; assay type: functional
[8] = system: Staphylococcus aureus; assay: Bactericidal activity against methicillin-resistant Staphylococcus aureus ATCC43300; assay type: functional
[9] = Ratio of MBC for bactericidal activity against methicillin-resistant Staphylococcus aureus ATCC43300 to MIC for antibacterial activity against methicillin-resistant Staphylococcus aureus ATCC43300 by broth microdilution method; assay type: functional
[10] = system: Staphylococcus aureus; assay: Antibacterial activity against methicillin-resistant Staphylococcus aureus ATCC43300 at 0.5 times of MIC measured up to 24 hrs by broth microdilution method; assay type: functional, organism-based; settings: time hrs <=24
[11] = system: Staphylococcus aureus; assay: Antibacterial activity against methicillin-resistant Staphylococcus aureus ATCC43300 at 1 times of MIC measured up to 9 hrs by broth microdilution method; assay type: functional, organism-based; settings: time hrs <=9
[12] = system: Staphylococcus aureus; assay: Bactericidal activity against methicillin-resistant Staphylococcus aureus ATCC43300 at 2 times of MIC measured up to 24 hrs; assay type: functional, organism-based; settings: time hrs <=24
[13] = system: Staphylococcus aureus; assay: Bactericidal activity against methicillin-resistant Staphylococcus aureus ATCC43300 at 4 times of MIC measured up to 24 hrs; assay type: functional, organism-based; settings: time hrs <=24

Work on `CCCCCc1ccc(-c2cn(CC(=O)NNC(=O)O[C@H]3[C@H](C)[C@@H](O[C@@H]4O[C@H](C)C[C@H](N(C)C)[C@H]4O)[C@](C)(O)C[C@@H](C)CN(C)[C@H](C)[C@H]4OC(=O)O[C@]4(C)[C@@H](CC)OC(=O)[C@@H]3C)nn2)cc1` yielded an MIC [1] of 8 µg/mL (≈ 8.6 µM), an MIC [2] of 4 µg/mL (≈ 4.3 µM) and an MIC [3] of 8 µg/mL (≈ 8.6 µM). It also gave an MIC [4] of 8 µg/mL (≈ 8.6 µM), an MIC [5] of 16 µg/mL (≈ 17.2 µM) and an MIC [6] of 16 µg/mL (≈ 17.2 µM). The MIC [7] was 32 µg/mL (≈ 34.4 µM), the MBC [8] was 126 µg/mL (≈ 135 µM) and the Ratio [9] was 8. The inhibition [10] was “inactive”, the inhibition [11] was “Active” and the inhibition [12] was “Active”. For the same compound, the inhibition [13] was “Active”.
`CCCCc1ccc(-c2cn(CC(=O)NNC(=O)O[C@H]3[C@H](C)[C@@H](O[C@@H]4O[C@H](C)C[C@H](N(C)C)[C@H]4O)[C@](C)(O)C[C@@H](C)CN(C)[C@H](C)[C@H]4OC(=O)O[C@]4(C)[C@@H](CC)OC(=O)[C@@H]3C)nn2)cc1` gave an MIC [1] of 8 µg/mL (≈ 8.73 µM), an MIC [2] of 4 µg/mL (≈ 4.37 µM) and an MIC [3] of 8 µg/mL (≈ 8.73 µM). For the same compound, the MIC [4] was 16 µg/mL (≈ 17.5 µM), the MIC [5] was 32 µg/mL (≈ 34.9 µM) and the MIC [6] was 32 µg/mL (≈ 34.9 µM). The MIC [7] was 16 µg/mL (≈ 17.5 µM), the MBC [8] was greater than 256 µg/mL and the Ratio [9] was greater than 8.
